Experimental data: patent US20230234943A1, “TREX1 INHIBITORS AND USES THEREOF” (Tempest Therapeutics, Inc., priority 2020, published 2023)

What follows are compounds tested against T1, Human TREX1 enzyme (amino acids 1-242) (Homo sapiens, UniProt Q9NSU2) (assay: Human TREX1 enzymatic assay with dsDNA native oligonucleotide (Picogreen fluorescence)). Conditions: 2 mM dithiothreitol in assay buffer; 50 nM dsDNA oligonucleotide; 30 min preincubation at 25° C.; read-out: TREX1/Human + DTT IC50 AVG.
T1 construct: Human TREX1 enzyme (amino acids 1-242)
T1 sequence (Q9NSU2 1-242): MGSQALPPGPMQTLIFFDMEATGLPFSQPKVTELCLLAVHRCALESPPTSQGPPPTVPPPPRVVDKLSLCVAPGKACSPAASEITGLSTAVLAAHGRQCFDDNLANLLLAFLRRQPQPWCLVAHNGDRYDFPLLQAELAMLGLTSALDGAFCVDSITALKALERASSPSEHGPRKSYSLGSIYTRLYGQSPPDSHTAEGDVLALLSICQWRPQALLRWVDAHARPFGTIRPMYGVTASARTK
Assay type: biochemical
How it was run: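 TREX1 (0.8–0.16 nM final) preincubated with compound (300 μM–13 nM or 30 μM–1.5 nM, 2% DMSO) 30 min at 25 °C in Tris pH 7.7, 5 mM MgCl2, 2 mM DTT. Annealed dsDNA (50 nM) added for 5–15 min at 25 °C; EDTA quench with Picogreen fluorescence readout.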

**Q.** How did the IC50 turn out when `COc1cc(-c2nc3cc(N4CCN(C5CC5)CC4)ccc3[nH]2)cc(O)c1O` [Example 274, 5-(5-(4-cyclopropylpiperazin-1-yl)-1H-benzo[d]imidazol-2-yl)-3-methoxybenzene-1,2-diol] was run?
**A.** > 100000 nM

**Q.** How did the IC50 turn out when `COc1cc(-c2nc3cc(N4CCOCC4=O)ccc3n2C2(C)COC2)c(F)c(O)c1O` [Example 275, 4-(2-(2-fluoro-3,4-dihydroxy-5-methoxyphenyl)-1-(3-methyloxetan-3-yl)-1H-benzo[d]imidazol-5-yl)morpholin-3-one] was run?
**A.** 100 to 1000 nM

**Q.** For `COc1cc(-c2nc3ccc(N4CCOC4=O)cc3n2C2(C)COC2)c(F)c(O)c1O` [Example 276, 3-(2-(2-fluoro-3,4-dihydroxy-5-methoxyphenyl)-1-(3-methyloxetan-3-yl)-1H-benzo[d]imidazol-6-yl)oxazolidin-2-one], which IC50 is on record?
**A.** ≤ 100 nM

**Q.** For `COc1cc(-c2nc3ccc(N4CCOCC4=O)cc3n2C2(C)COC2)c(F)c(O)c1O` [Example 277, 4-(2-(2-fluoro-3,4-dihydroxy-5-methoxyphenyl)-1-(3-methyloxetan-3-yl)-1H-benzo[d]imidazol-6-yl)morpholin-3-one], which IC50 is on record?
**A.** 1000 to 10000 nM

**Q.** `COc1cc(-c2nc3cc(N4CCN(C)C(=O)C4)ccc3n2C2(C)COC2)c(F)c(O)c1O` [Example 278, 4-(2-(2-fluoro-3,4-dihydroxy-5-methoxyphenyl)-1-(3-methyloxetan-3-yl)-1H-benzo[d]imidazol-5-yl)-1-methylpiperazin-2-one] was tested. Which IC50 did it give?
**A.** ≤ 100 nM

**Q.** With `COc1cc(-c2nc3ccc(C(O)C(F)(F)F)cc3n2C2(C)COC2)c(F)c(O)c1O` (stereo not shown) [Example 280, 3-fluoro-6-methoxy-4-(1-(3-methyloxetan-3-yl)-6-(2,2,2-trifluoro-1-hydroxyethyl)-1H-benzo[d]imidazol-2-yl)benzene-1,2-diol] as the compound, how does the IC50 read?
**A.** 100 to 1000 nM

**Q.** For `COc1cc(-c2nc3ccc(CO)cc3n2C2(C)COC2)c(F)c(O)c1O` [Example 281, 3-fluoro-4-(6-(hydroxymethyl)-1-(3-methyloxetan-3-yl)-1H-benzo[d]imidazol-2-yl)-6-methoxybenzene-1,2-diol], which IC50 is on record?
**A.** 100 to 1000 nM

**Q.** `COc1cc(-c2nc3ccc(N4CCC4)cc3n2C2COC2)c(C)c(O)c1O` [Example 283, 4-(6-(azetidin-1-yl)-1-(oxetan-3-yl)-1H-benzo[d]imidazol-2-yl)-6-methoxy-3-methylbenzene-1,2-diol] was tested. Which IC50 did it give?
**A.** 1000 to 10000 nM

**Q.** Which IC50 does the source give for `COc1cc(-c2nc3cc(N4CCC4)ccc3n2C2COC2)cc(O)c1O` [Example 284, 5-(5-(azetidin-1-yl)-1-(oxetan-3-yl)-1H-benzo[d]imidazol-2-yl)-3-methoxybenzene-1,2-diol] here?
**A.** 1000 to 10000 nM

**Q.** `COc1cc(-c2nc3ccc(N4CCC4)cc3n2C2COC2)cc(O)c1O` [Example 285, 5-(6-(azetidin-1-yl)-1-(oxetan-3-yl)-1H-benzo[d]imidazol-2-yl)-3-methoxybenzene-1,2-diol] was tested. Which IC50 did it give?
**A.** 1000 to 10000 nM

**Q.** How did the IC50 turn out when `COc1cc(-c2nc3ccc(N4CCOCC4)cc3n2C2CCOC2)c(C)c(O)c1O` (stereo not shown) [Example 286, 6-methoxy-3-methyl-4-(6-morpholino-1-(tetrahydrofuran-3-yl)-1H-benzo[d]imidazol-2-yl)benzene-1,2-diol] was run?
**A.** 1000 to 10000 nM

**Q.** With `COc1cc(-c2nc3nc(N4CCOCC4)ccc3n2C2CCOC2)cc(O)c1O` (stereo not shown) [Example 287, 3-methoxy-5-(5-morpholino-1-(tetrahydrofuran-3-yl)-1H-imidazo[4,5-b]pyridin-2-yl)benzene-1,2-diol] as the compound, how does the IC50 read?
**A.** > 100000 nM

**Q.** For `COc1cc(-c2nc3ccc(N4CCC4)cc3n2C2COC2)c(F)c(O)c1O` [Example 288, 4-(6-(azetidin-1-yl)-1-(oxetan-3-yl)-1H-benzo[d]imidazol-2-yl)-3-fluoro-6-methoxybenzene-1,2-diol], which IC50 is on record?
**A.** 1000 to 10000 nM

**Q.** With `COc1cc(-c2nc3cc(-c4ccccn4)ccc3[nH]2)c(C)c(O)c1O` [Example 289, 6-methoxy-3-methyl-4-[5-(pyridin-2-yl)-1H-1,3-benzodiazol-2-yl]benzene-1,2-diol] as the compound, how does the IC50 read?
**A.** 1000 to 10000 nM

**Q.** Which IC50 does the source give for `Cc1c(-c2nc3ccccc3n2C2CCC2)cc(OC(C)C)c(O)c1O` [Example 290, 4-(1-cyclobutyl-1H-1,3-benzodiazol-2-yl)-3-methyl-6-(propan-2-yloxy)benzene-1,2-diol] here?
**A.** 10000 to 100000 nM

**Q.** Which IC50 does the source give for `COc1cc(-c2nc3ccccc3n2C23CC(C2)C3)c(C)c(O)c1O` [Example 291, 4-(1-(bicyclo[1.1.1]pentan-1-yl)-1H-benzo[d]imidazol-2-yl)-6-methoxy-3-methylbenzene-1,2-diol] here?
**A.** 100 to 1000 nM

**Q.** How did the IC50 turn out when `COc1cc(-c2nc3nc(N4CCC4)ccc3n2C2CCOC2)cc(O)c1O` (stereo not shown) [Example 292, 5-(5-(azetidin-1-yl)-1-(tetrahydrofuran-3-yl)-1H-imidazo[4,5-b]pyridin-2-yl)-3-methoxybenzene-1,2-diol] was run?
**A.** 10000 to 100000 nM

**Q.** `COc1cc(-c2nc3cc(N4CCC4)cc(C)c3[nH]2)cc(O)c1O` [Example 293, 5-(5-(azetidin-1-yl)-7-methyl-1H-benzo[d]imidazol-2-yl)-3-methoxybenzene-1,2-diol] was tested. Which IC50 did it give?
**A.** > 100000 nM

**Q.** For `COc1cc(-c2nc3cc(N4CC(O)C4)ccc3n2C2COC2)c(F)c(O)c1O` [Example 294, 3-fluoro-4-(5-(3-hydroxyazetidin-1-yl)-1-(oxetan-3-yl)-1H-benzo[d]imidazol-2-yl)-6-methoxybenzene-1,2-diol], which IC50 is on record?
**A.** 1000 to 10000 nM

**Q.** With `COc1cc(-c2nc3ccc(-c4ccn[nH]4)cc3n2C2(C)COC2)c(F)c(O)c1O` [Example 295, 3-fluoro-6-methoxy-4-(1-(3-methyloxetan-3-yl)-6-(1H-pyrazol-5-yl)-1H-benzo[d]imidazol-2-yl)benzene-1,2-diol] as the compound, how does the IC50 read?
**A.** ≤ 100 nM

**Q.** How did the IC50 turn out when `COc1cc(-c2nc3ccc(-c4ncco4)cc3n2C2(C)COC2)c(F)c(O)c1O` [Example 296, 3-fluoro-6-methoxy-4-(1-(3-methyloxetan-3-yl)-6-(oxazol-2-yl)-1H-benzo[d]imidazol-2-yl)benzene-1,2-diol] was run?
**A.** ≤ 100 nM

**Q.** For `COc1c(C)c(-c2nc3ccccc3n2C2CCC2)c(F)c(O)c1O` [Example 297, 4-(1-cyclobutyl-1H-benzo[d]imidazol-2-yl)-3-fluoro-6-methoxy-5-methylbenzene-1,2-diol], which IC50 is on record?
**A.** 10000 to 100000 nM

**Q.** `COc1c(O)c(O)cc(-c2nc3cc(N4CCC4)ccc3n2C2COC2)c1F` [Example 298, 5-(5-(azetidin-1-yl)-1-(oxetan-3-yl)-1H-benzo[d]imidazol-2-yl)-4-fluoro-3-methoxybenzene-1,2-diol] was tested. Which IC50 did it give?
**A.** 1000 to 10000 nM

**Q.** For `COc1c(C)c(-c2nc3cc(N4CCC4)ccc3n2C2CCC2)cc(O)c1O` [Example 299, 5-(5-(azetidin-1-yl)-1-cyclobutyl-1H-benzo[d]imidazol-2-yl)-3-methoxy-4-methylbenzene-1,2-diol], which IC50 is on record?
**A.** 10000 to 100000 nM

**Q.** `COc1cc(-c2nc3cc(Cl)c(Cl)cc3[nH]2)c(F)c(O)c1O` [Example 300, 4-(5,6-dichloro-1H-benzo[d]imidazol-2-yl)-3-fluoro-6-methoxybenzene-1,2-diol] was tested. Which IC50 did it give?
**A.** 10000 to 100000 nM

**Q.** `COc1cc(-c2nc3c(Cl)c(Cl)ccc3n2C2(C)COC2)cc(O)c1O` [Example 301, 5-(4,5-dichloro-1-(3-methyloxetan-3-yl)-1H-benzo[d]imidazol-2-yl)-3-methoxybenzene-1,2-diol] was tested. Which IC50 did it give?
**A.** 100 to 1000 nM

**Q.** Which IC50 does the source give for `COc1cc(-c2nc3cc(Cl)c(Cl)cc3n2C2(C)COC2)cc(O)c1O` [Example 302, 5-(5,6-dichloro-1-(3-methyloxetan-3-yl)-1H-benzo[d]imidazol-2-yl)-3-methoxybenzene-1,2-diol] here?
**A.** 100 to 1000 nM

**Q.** How did the IC50 turn out when `COc1cc(-c2nc3cc(NC(=O)c4ccccc4)ccc3n2C2(C)COC2)c(F)c(O)c1O` [Example 303, N-(2-(2-fluoro-3,4-dihydroxy-5-methoxyphenyl)-1-(3-methyloxetan-3-yl)-1H-benzo[d]imidazol-5-yl)benzamide] was run?
**A.** ≤ 100 nM

**Q.** Which IC50 does the source give for `COc1cc(-c2nc3cc(NC(=O)c4cccnc4)ccc3n2C2(C)COC2)c(F)c(O)c1O` [Example 304, N-(2-(2-fluoro-3,4-dihydroxy-5-methoxyphenyl)-1-(3-methyloxetan-3-yl)-1H-benzo[d]imidazol-5-yl)nicotinamide] here?
**A.** 100 to 1000 nM

**Q.** `COc1cc(-c2nc3ccc(NC(=O)c4ccc(F)cc4)cc3n2C2(C)COC2)c(F)c(O)c1O` [Example 305, 4-fluoro-N-(2-(2-fluoro-3,4-dihydroxy-5-methoxyphenyl)-1-(3-methyloxetan-3-yl)-1H-benzo[d]imidazol-6-yl)benzamide] was tested. Which IC50 did it give?
**A.** ≤ 100 nM

**Q.** Which IC50 does the source give for `COc1cc(-c2nc3cc(NC(=O)c4ccncc4)ccc3n2C2(C)COC2)c(F)c(O)c1O` [Example 306, N-(2-(2-fluoro-3,4-dihydroxy-5-methoxyphenyl)-1-(3-methyloxetan-3-yl)-1H-benzo[d]imidazol-5-yl)isonicotinamide] here?
**A.** ≤ 100 nM

**Q.** With `COc1cc(-c2nc3ccc(C(=O)NC4CS(=O)(=O)C4)cc3n2C2(C)COC2)c(F)c(O)c1O` [Example 307, N-(1,1-dioxidothietan-3-yl)-2-(2-fluoro-3,4-dihydroxy-5-methoxyphenyl)-1-(3-methyloxetan-3-yl)-1H-benzo[d]imidazole-6-carboxamide] as the compound, how does the IC50 read?
**A.** ≤ 100 nM

**Q.** `CNC(=O)c1ccc2c(c1)nc(-c1cc(OC)c(O)c(O)c1F)n2C1(C)COC1` [Example 308, 2-(2-fluoro-3,4-dihydroxy-5-methoxyphenyl)-N-methyl-1-(3-methyloxetan-3-yl)-1H-benzo[d]imidazole-5-carboxamide] was tested. Which IC50 did it give?
**A.** 100 to 1000 nM

**Q.** `CNC(=O)c1ccc2nc(-c3cc(OC)c(O)c(O)c3F)n(C3CCC3)c2c1` [Example 309, 1-cyclobutyl-2-(2-fluoro-3,4-dihydroxy-5-methoxyphenyl)-N-methyl-1H-benzo[d]imidazole-6-carboxamide] was tested. Which IC50 did it give?
**A.** ≤ 100 nM
